We go through one compound from ChEMBL document CHEMBL2384983, “A cyclodextrin-capped histone deacetylase inhibitor” (Bioorg Med Chem Lett, 2013).

For one experiment, the target named is T1, Histone deacetylase 8 (Homo sapiens, UniProt Q9BY41).
T1 sequence (Q9BY41 whole entry): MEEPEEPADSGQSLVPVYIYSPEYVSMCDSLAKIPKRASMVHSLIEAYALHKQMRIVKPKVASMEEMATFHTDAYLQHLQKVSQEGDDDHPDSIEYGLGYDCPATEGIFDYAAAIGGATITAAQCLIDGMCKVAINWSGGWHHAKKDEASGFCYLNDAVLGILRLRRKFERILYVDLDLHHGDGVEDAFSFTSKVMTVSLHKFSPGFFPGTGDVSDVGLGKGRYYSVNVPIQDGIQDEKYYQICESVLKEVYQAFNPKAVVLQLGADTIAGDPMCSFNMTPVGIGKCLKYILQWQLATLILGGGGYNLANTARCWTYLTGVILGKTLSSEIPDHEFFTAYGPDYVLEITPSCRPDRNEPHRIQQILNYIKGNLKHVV
As to the kind of experiment: Inhibition of HDAC8 (unknown origin).

Experiment [1] deals with T2, Protein deacetylase HDAC6 (Homo sapiens, UniProt Q9UBN7).
T2 sequence (Q9UBN7 whole entry): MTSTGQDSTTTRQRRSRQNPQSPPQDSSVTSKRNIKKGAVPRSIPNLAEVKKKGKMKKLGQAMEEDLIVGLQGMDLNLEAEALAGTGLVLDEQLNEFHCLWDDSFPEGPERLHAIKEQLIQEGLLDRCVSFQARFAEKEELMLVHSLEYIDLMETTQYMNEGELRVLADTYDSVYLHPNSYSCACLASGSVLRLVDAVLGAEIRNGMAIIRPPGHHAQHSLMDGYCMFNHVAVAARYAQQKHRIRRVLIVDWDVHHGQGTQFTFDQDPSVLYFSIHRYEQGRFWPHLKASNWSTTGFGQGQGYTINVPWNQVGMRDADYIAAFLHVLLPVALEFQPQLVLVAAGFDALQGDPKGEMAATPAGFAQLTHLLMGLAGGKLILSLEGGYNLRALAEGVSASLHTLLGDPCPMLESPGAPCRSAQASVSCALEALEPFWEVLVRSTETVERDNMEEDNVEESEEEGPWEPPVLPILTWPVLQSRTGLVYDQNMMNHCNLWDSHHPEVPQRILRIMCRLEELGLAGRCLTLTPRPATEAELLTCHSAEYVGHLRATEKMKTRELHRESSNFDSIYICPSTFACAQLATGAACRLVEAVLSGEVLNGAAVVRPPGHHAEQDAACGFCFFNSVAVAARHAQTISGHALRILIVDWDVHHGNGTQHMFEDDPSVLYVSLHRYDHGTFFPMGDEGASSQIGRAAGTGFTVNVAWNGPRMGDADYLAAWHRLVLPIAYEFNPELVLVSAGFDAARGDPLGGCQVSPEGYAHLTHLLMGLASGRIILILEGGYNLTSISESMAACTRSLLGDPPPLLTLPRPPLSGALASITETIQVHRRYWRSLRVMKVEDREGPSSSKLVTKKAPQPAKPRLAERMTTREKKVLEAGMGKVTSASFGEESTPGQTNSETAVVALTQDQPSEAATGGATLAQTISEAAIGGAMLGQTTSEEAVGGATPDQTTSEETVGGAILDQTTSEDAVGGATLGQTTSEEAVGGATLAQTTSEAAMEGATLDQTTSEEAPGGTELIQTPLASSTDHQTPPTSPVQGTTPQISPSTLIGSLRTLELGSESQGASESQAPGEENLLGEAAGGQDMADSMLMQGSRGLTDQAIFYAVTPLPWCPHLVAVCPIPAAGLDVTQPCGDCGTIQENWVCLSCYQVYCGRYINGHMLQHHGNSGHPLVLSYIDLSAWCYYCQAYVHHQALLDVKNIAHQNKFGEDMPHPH
As to the kind of experiment: Inhibition of HDAC6 (unknown origin).

A further experiment addresses Histone deacetylase 1 (Homo sapiens, UniProt Q13547). As to the kind of experiment: Inhibition of HDAC1 (unknown origin).
Another experiment has as its target Histone deacetylase 3 (Homo sapiens, UniProt O15379). Briefly: Inhibition of HDAC3 (unknown origin).
For the next experiment, the target named is Histone deacetylase 2 (Homo sapiens, UniProt Q92769). Briefly: Inhibition of HDAC2 (unknown origin).
Sequence of Histone deacetylase 2 (Q92769 whole entry): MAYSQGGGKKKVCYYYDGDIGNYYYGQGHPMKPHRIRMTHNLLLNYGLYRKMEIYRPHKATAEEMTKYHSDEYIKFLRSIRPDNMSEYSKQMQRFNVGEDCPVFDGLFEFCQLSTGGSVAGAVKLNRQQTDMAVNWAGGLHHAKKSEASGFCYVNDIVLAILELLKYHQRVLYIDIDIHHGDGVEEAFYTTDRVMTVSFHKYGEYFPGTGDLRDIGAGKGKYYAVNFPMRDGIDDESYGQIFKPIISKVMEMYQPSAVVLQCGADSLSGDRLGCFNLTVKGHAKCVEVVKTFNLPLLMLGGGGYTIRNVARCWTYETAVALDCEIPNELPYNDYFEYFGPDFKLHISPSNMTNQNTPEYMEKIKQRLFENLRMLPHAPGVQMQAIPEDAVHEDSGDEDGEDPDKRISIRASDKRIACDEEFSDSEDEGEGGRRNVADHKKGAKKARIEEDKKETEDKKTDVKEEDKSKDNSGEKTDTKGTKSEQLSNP

Sequence of Histone deacetylase 3 (O15379 whole entry): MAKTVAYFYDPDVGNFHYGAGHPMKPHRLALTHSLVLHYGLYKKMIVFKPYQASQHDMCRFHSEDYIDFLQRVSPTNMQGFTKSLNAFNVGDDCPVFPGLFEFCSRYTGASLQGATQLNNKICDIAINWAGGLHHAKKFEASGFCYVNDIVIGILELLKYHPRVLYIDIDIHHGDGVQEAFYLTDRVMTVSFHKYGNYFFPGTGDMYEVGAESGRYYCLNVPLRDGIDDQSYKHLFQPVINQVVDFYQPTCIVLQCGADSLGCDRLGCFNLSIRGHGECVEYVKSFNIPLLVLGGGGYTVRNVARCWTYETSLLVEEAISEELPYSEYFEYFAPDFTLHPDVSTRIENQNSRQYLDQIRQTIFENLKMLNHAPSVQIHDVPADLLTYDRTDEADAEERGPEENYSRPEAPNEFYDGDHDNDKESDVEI
Sequence of Histone deacetylase 1 (Q13547 whole entry): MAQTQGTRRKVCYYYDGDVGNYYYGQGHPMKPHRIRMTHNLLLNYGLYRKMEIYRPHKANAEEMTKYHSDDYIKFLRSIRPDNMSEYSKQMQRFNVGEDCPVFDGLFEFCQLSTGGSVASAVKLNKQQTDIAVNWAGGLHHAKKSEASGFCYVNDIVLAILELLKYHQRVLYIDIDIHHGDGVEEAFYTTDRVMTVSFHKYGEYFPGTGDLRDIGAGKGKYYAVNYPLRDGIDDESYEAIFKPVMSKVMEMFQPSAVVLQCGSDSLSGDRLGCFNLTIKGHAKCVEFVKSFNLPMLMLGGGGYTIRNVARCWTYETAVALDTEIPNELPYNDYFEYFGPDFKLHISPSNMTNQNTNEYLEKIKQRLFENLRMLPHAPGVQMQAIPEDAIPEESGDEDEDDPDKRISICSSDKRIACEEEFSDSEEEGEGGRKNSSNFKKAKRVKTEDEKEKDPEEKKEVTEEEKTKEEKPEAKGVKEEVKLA

On to `O=C(CCCCCCC(=O)NC[C@H]1O[C@@H]2O[C@H]3[C@H](O)[C@@H](O)[C@@H](O[C@H]4[C@H](O)[C@@H](O)[C@@H](O[C@H]5[C@H](O)[C@@H](O)[C@@H](O[C@H]6[C@H](O)[C@@H](O)[C@@H](O[C@H]7[C@H](O)[C@@H](O)[C@@H](O[C@H]8[C@H](O)[C@@H](O)[C@@H](O[C@H]1[C@H](O)[C@H]2O)O[C@@H]8CO)O[C@@H]7CO)O[C@@H]6CO)O[C@@H]5CO)O[C@@H]4CO)O[C@@H]3CO)NO`, for which the IC50 on Histone deacetylase 8 came to 6 µM; in experiment [1], 0.12 µM; at Histone deacetylase 1, 0.63 µM; at Histone deacetylase 3, 1.6 µM; at Histone deacetylase 2, 1.2 µM.
